Reference: patent US9795675B2, “Light-activatable polymeric nanoparticles” (CNC—CENTRO DE NEUROCIÊNCIAS E BIOLOGIA CELULAR, priority 2013, dated 2017)

Columns and labels:
[1] = test system: U937 cells; experiment: Uptake of FITC-labeled transferrin (validation of dynasor); assay type: cell-based, human; settings: dynasor 80 μM, 30 min pre-incubation
Method: (§1) Uptake mechanisms analysis. For determining the uptake mechanism(s), we first perform NP uptake assays in the presence of endocytosis inhibitors. U937 cells were cultured on 24 well plates (1×10^5 cells/well) and inhibited by one of the following chemicals during 30 min before adding a suspension of TRITC-labelled NPs (5 μg/mL): dynasor (80 μM), cytochalasin D (10 μM), nocodazole (50 uM), filipin III (100 μM) and polyinosinic acid (100 μg/mL). The inhibitor concentrations were based in values reported in literature and further validated by us to have no cytotoxic effect over the period of the assay (6 h), as confirmed by ATP assay. The incubation of the cells with NPs for different times was performed in the presence of the inhibitor. As controls, we used cells without NPs and cells incubated with NPs without inhibitor. At the end of each time point, cells were centrifuged at 1300 rpm, 2° C. for 5 min with PBS, washed one time with cold trypan blue solution (200 μL; 600 μg/mL), re-washed 3 times with cold PBS and then resuspended in PBS containing 2.5% FBS (500 μL) for FACS analysis. A total of 10,000 events were obtained per measurement. To validate the inhibitory activity of dynasor we performed uptake studies of FITC-labeled transferrin, known to selectively enter cells via clatherin-mediated endocytosis. […] Cells were then evaluated as before.

[2] = test system: U937 cells; experiment: NP uptake in the presence of endocytosis inhibitors (FACS); assay type: cell-based, human; settings: dynasor 80 μM; TRITC-labelled NPs 5 μg/mL
Method: as §1

[3] = test system: patients; settings: cited from earlier work
[4] = test system: K562, NB4 and U937 cells; experiment: Retinoic acid uptake assay ([3H]RA, scintillation counting); assay type: cell-based, human
Method: Experiments were initiated by the addition of medium containing [^3H]RA (1 μM and 10 μM) and [^3H]RA-NPs (1 μg/mL and 10 μg/mL) to cultures (60,000 cells/condition, 24-well plate, 1 mL) of K562, NB4 and U937 cells. After experimental incubations with medium containing [^3H]RA and [^3H]RA-NPs for 4, 24 and 72 hours, cells were collected to eppendorfs, washed with PBS by centrifugation (1500 rpm, 5 min, 2 times) to remove non-internalized [^3H]RA and then resuspend in 100 μL of lysis buffer (see above) and kept on ice until scintillation counting procedure.
The titrium content of the samples was assayed by adding 100 μL aliquot of the samples to 1 mL liquid scintillation fluid (Packard Ultima Gold) and counted in a TriCarb 2900 TR Scintillation analyzer (Perkin Elmer). All conditions were performed in triplicate.

Structure (SMILES): O=C(N/N=C/c1ccc(O)c(O)c1)c1cc2ccccc2cc1O [Dynasore]
- internalisation of FITC-labeled transferrin [1]: inhibits the internalisation of transferrin
- reduction of the uptake of NPs compared to control cells [2]: 90%

Structure (SMILES): CC1=C(/C=C/C(C)=C/C=C/C(C)=C/C(=O)O)C(C)(C)CCC1 [RA, retinoic acid]
- patients receiving RA who develop serious complications including the differentiation syndrome ([3]; human, in vivo): approximately 25%
- patients in whom the dose of RA leads to hyperleukocytosis and respiratory distress syndrome ([3]; up to): 20-30%
- time of peak RA uptake [4]: 24 h

Structure (SMILES): CC1=C(/C=C/C(C)=C/C=C/C(C)=C/C(=O)O)C(C)(C)CCC1 [[^3H]RA]
- uptake yield of [^3H]RA ([4]; [^3H]RA 1 and 10 uM or [^3H]RA-NPs 1 and 10 ug/mL, for 4 hours, measured after 24 and 72 hours): below 2%
